Assay results: patent publication EP4768479A1 (Hubei Bio-Pharmaceutical Industrial Technological Institute …, priority 2023, dated 2025)

How the values were obtained:
CYP2B6 = biological target: T1, CYP2B6 (Homo sapiens, UniProt P20813); assay: CYP inhibition assay in mixed human liver microsomes; format: in vitro ADME; conditions: read-out: Inhibition Rate % CYP2B6
T1 construct: Mixed human liver microsomes; from tissue; host or cells: mixed (pooled) human liver microsomes
T1 sequence (P20813 1-491): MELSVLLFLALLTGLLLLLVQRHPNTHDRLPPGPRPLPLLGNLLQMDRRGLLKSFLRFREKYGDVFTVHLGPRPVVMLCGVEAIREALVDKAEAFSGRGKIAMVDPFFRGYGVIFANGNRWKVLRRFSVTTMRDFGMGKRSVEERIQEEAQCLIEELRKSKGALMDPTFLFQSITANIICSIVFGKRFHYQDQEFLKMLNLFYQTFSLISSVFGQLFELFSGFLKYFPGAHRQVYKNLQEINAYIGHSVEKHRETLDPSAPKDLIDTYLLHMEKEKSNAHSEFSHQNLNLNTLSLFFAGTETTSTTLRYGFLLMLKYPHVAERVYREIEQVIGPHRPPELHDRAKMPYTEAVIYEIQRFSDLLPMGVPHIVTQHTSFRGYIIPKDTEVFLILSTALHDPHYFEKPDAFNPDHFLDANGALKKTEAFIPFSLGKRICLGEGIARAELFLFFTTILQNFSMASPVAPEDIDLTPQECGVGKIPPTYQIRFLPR
Description: (§1) The inhibitory effects of the compounds on six enzymes, i.e., CYP1A2, CYP2C9, CYP2C19, CYP2D6, CYP3A4 (midazolam), and CYP2B6, were evaluated at a concentration of 10 µM. Mixed human liver microsomes, which were previously stored in a -80°C refrigerator before use, were taken out and thawed in a water bath at 37°C before use, and placed on ice for further operation. 100 µL of microsome working solution was taken, and added with 2 µL of compound or positive inhibitor working solution. 2 µL of solvent was added to the solvent control. The mixture was pre-incubated in a water bath at 37°C for 10 minutes. After the preincubation, 98 µL of NADPH regeneration solution was added to all samples to initiate the reaction. Then, the samples were put back into the water bath and incubated for a period of time. The reaction was quenched with 200 µL of stop solution. The plate was centrifuged at 3,220 g for 10 minutes, 100 µL of supernatant was transferred, and 100 µL of water was added and mixed well to the assay plate for LC/MS/MS analysis. [Table 2] CYP450 Inhibition Results of Compounds

CYP2C9 = biological target: T2, CYP2C9 (Homo sapiens, UniProt P11712); assay: as above; format: in vitro ADME; conditions: read-out: Inhibition Rate % CYP2C9
T2 construct: Mixed human liver microsomes; from tissue; host or cells: mixed (pooled) human liver microsomes
Description: as §1

CYP2D6 = biological target: T3, CYP2D6 (Homo sapiens, UniProt P10635); assay: as above; format: in vitro ADME; conditions: read-out: Inhibition Rate % CYP2D6
T3 construct: Mixed human liver microsomes; from tissue; host or cells: mixed (pooled) human liver microsomes
Description: as §1

CYP2C19 = biological target: T4, CYP2C19 (Homo sapiens, UniProt P33261); assay: as above; format: in vitro ADME; conditions: read-out: Inhibition Rate % CYP2C19
T4 construct: Mixed human liver microsomes; from tissue; host or cells: mixed (pooled) human liver microsomes
Description: as §1

CYP1A2 = biological target: T5, CYP1A2 (Homo sapiens, UniProt P05177); assay: as above; format: in vitro ADME; conditions: read-out: Inhibition Rate % CYP1A2
T5 construct: Mixed human liver microsomes; from tissue; host or cells: mixed (pooled) human liver microsomes
T5 sequence (P05177 1-516): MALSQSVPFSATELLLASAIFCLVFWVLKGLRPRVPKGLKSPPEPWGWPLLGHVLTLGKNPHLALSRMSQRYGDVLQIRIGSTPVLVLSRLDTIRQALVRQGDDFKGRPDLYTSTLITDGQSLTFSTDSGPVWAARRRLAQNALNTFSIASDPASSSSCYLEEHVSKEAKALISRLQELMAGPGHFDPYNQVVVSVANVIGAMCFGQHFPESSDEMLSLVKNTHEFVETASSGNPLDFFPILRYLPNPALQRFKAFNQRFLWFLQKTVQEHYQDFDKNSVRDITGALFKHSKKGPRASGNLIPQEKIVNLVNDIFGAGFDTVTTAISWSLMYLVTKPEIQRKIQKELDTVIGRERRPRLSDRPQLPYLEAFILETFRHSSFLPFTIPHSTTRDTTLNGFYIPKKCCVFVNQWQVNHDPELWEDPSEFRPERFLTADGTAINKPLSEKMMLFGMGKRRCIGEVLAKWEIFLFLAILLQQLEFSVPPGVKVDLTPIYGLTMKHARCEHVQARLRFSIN
Description: as §1

CYP3A4 = biological target: T6, CYP3A4 (Homo sapiens, UniProt P08684); assay: as above; format: in vitro ADME; conditions: probe midazolam, read-out: Inhibition Rate % CYP3A4 (midazolam)
T6 construct: Mixed human liver microsomes; from tissue; host or cells: mixed (pooled) human liver microsomes
Description: as §1

AT2R = biological target: T7, AT2R (Homo sapiens, UniProt P50052); assay: Binding assay of compounds to AT2R (Tag-lite HTRF ligand binding kit)
T7 construct: purchased Cisbio #C1TT1AT2
T7 sequence (P50052 1-363): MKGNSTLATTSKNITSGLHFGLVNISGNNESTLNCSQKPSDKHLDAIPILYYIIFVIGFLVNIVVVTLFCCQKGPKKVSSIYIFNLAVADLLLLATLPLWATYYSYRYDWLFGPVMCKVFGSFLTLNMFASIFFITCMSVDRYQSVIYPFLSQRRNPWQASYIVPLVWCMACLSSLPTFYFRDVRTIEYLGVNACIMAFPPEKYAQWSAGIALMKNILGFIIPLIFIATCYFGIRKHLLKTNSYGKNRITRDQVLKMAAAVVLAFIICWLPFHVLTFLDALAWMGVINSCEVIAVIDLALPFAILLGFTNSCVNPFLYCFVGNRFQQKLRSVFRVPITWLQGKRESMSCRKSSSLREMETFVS
Description: The assay was performed in accordance with the manufacturer instructions of Angiotensin AT2 Receptor Ligand Binding Assay Kit (#C1TT1AT2, Cisbio). First, a 10 mM compound stock solution was diluted in a gradient at a 5× dilution ratio (including 10 concentrations, each with two replicates). 160 nL of compounds at different concentrations was added to a 384-well plate. 40 µL of 1× TLB (TLB: Tag-lite buffer) was added to each well, and the mixture was shaken at room temperature for 15 minutes. A 15 mL centrifuge tube added with 5 mL of 1×TLB was prepared in advance. The frozen labeled cells were thawed in a water bath at 37°C (for 1 to 2 minutes), and the thawed cells were quickly transferred to the above 15 mL centrifuge tube. The mixture was mixed well and centrifuged at 1,000 g at room temperature for 5 minutes. The supernatant was removed, and the cells were resuspended by adding 2.7 mL 1× TLB. A new 384-well plate was taken, and 10 µL of mixed cells were added into the corresponding wells according to the assay design. 5 µL of 4× compound solution and 5 µL of 4× Tag-lite red fluorescent labeled ligand were added to each well. After incubation at room temperature for 1 hour, data were read using EnVision with an HTRF mode. The […] at 665nM and 615nM in each well were read respectively, and the ratio was calculated (Ratio=A665nM/B615nM). The IC50 value was calculated by means of GraphPad Prism8 software, where X represents logarithmic value of compound concentration; and Y represents ratio of A665nM/B615nM.

T2 sequence (P11712 whole entry): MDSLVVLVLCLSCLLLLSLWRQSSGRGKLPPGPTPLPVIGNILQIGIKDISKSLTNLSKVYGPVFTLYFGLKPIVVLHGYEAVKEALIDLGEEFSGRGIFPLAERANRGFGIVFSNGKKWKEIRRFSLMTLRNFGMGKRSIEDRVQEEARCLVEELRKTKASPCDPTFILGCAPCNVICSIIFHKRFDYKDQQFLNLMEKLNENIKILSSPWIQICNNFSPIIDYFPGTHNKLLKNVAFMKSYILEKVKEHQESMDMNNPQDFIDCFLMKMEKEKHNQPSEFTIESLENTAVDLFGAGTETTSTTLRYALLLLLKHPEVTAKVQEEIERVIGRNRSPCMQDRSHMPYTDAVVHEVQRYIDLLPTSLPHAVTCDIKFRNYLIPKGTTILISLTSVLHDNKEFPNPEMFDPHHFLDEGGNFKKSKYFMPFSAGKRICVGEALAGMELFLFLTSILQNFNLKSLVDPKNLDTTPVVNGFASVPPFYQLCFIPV
T6 sequence (P08684 whole entry): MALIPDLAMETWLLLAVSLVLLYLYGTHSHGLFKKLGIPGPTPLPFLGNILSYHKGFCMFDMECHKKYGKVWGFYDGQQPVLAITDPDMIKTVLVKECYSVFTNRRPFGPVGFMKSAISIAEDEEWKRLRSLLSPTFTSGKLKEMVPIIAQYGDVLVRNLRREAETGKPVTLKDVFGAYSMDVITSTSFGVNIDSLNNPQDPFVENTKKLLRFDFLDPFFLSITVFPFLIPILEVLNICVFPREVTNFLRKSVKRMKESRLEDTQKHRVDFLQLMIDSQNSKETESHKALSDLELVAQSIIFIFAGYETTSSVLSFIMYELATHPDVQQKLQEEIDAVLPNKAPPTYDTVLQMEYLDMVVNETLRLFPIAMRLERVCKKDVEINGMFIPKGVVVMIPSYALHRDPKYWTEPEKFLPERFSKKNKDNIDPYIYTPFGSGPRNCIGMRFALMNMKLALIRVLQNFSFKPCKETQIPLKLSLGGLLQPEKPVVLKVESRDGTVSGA
T3 sequence (P10635 whole entry): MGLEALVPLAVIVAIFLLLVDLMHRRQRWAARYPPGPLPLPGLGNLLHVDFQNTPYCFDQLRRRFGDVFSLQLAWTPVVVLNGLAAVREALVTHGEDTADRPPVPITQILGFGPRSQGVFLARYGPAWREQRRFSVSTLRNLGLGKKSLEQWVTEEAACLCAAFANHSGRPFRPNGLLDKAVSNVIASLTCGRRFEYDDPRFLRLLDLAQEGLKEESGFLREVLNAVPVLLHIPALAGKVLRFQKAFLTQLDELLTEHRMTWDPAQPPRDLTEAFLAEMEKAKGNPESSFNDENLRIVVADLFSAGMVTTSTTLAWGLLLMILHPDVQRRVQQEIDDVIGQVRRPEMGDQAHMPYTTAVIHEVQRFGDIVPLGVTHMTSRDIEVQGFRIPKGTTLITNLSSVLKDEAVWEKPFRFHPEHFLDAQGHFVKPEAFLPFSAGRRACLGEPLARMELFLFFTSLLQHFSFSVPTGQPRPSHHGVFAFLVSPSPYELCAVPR
T4 sequence (P33261 whole entry): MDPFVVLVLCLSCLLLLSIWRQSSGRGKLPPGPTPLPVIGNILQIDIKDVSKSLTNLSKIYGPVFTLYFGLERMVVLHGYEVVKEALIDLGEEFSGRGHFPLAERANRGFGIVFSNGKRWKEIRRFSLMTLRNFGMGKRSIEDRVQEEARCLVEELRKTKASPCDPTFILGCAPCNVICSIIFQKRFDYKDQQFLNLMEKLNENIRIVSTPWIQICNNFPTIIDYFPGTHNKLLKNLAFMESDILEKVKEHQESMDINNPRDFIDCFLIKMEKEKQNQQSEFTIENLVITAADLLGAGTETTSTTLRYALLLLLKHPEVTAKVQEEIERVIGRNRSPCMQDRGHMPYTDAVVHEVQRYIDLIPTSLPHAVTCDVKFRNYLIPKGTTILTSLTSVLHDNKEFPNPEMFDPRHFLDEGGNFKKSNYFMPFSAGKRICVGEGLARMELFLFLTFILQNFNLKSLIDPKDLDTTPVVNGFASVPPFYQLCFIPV

| Structure (SMILES) | inhibition at 10 µM (CYP2B6) [%] | inhibition at 10 µM (CYP2C9) [%] | inhibition at 10 µM (CYP2D6) [%] | inhibition at 10 µM (CYP2C19) [%] | inhibition at 10 µM (CYP1A2) [%] | inhibition at 10 µM (CYP3A4) [%] | IC50 (AT2R) [nM] |
| --- | --- | --- | --- | --- | --- | --- | --- |
| COC(=O)NS(=O)(=O)c1sc(CC(C)C)c(C)c1-c1ccc(Cn2ccnc2C(F)(F)F)cc1 [Compound I-9, Methyl ((5-isobutyl-4-methyl-3-(4-((2-(trifluoromethyl)-1H-imidazol-1-yl)methyl)phenyl)thiophen-2-yl)sulfonyl)carbamate] | 22.2 | 18.6 | 0 | 29.8 | 0 | 0 | 5.13 |
| Cc1c(CC(C)C)sc(S(=O)(=O)NC(=O)OCC(C)(C)O)c1-c1ccc(Cn2ccnc2C(F)(F)F)cc1 [Compound I-10, 2-hydroxy-2-methylpropyl ((5-isobutyl-4-methyl-3-(4-((2-(trifluoromethyl)-1H-imidazol-1-yl)methyl)phenyl)thiophen-2-yl)sulfonyl)carbamate] | 13.7 | 5.3 | 0 | 7.4 | 0 | 0 | 2.31 |
| Cc1c(CC(C)C)sc(S(=O)(=O)NC(=O)OCCO)c1-c1ccc(Cn2ccnc2C(F)(F)F)cc1 [Compound I-13, 2-hydroxyethyl ((5-isobutyl-4-methyl-3-(4-((2-(trifluoromethyl)-1H-imidazol-1-yl)methyl)phenyl)thiophen-2-yl)sulfonyl)carbamate] | 11.3 | 12.2 | 0 | 17.3 | 3.5 | 9.6 | 2.6 |
| COC(=O)NS(=O)(=O)c1sc(CC(C)C)c(C)c1-c1ccc(Cn2ccnc2Cl)c(F)c1 [Compound I-14, Methyl ((3-(4-((2-chloro-1H-imidazol-1-yl)methyl)-3-fluorophenyl)-5-isobutyl-4-methylthiophen-2-yl)sulfonyl)carbamate] | 4.3 | 24.8 | 2.1 | 11.9 | 5.6 | 14 | 1.39 |
| COC(=O)NS(=O)(=O)c1sc(CC(C)C)c(C)c1-c1ccc(Cn2ccnc2C(C)(C)O)cc1 [Compound I-19, Methyl ((3-(4-((2-(2-hydroxypropan-2-yl)-1H-imidazol-1-yl)methyl)phenyl)-5-isobutyl-4-methylthiophen-2-yl)sulfonyl)carbamate] | 3.8 | 0 | 0 | 0 | 0 | 7.6 | 2.91 |
| Cc1c(CC(C)C)sc(S(=O)(=O)Nc2ncccn2)c1-c1ccc(Cn2ccnc2Cl)cc1 [Compound I-23, 3-(4-((2-chloro-1H-imidazol-1-yl)methyl)phenyl)-5-isobutyl-4-methyl-N-(pyrimidin-2-yl)thiophene-2-sulfonamide] | 7.6 | 20.5 | 0 | 15.4 | 8.3 | 0 | 1.79 |
| CCCCOC(=O)NS(=O)(=O)c1sc(CC(C)C)cc1-c1ccc(Cn2ccnc2)cc1 [Control Compound I, reference compound] | 63.2 | 100 | 86.5 | 100 | 95.4 | 92.6 | – |
